Assay results taken from US11051515B2, “3-acyl-benzamides and their use as herbicides” (Bayer Aktiengesellschaft, priority 2017, dated 2021).

Legend:
VERPE [1] = assay: Pre-emergence action against VERPE; type: in vivo, Veronica persica; conditions: Dosage 320 g/ha, pre-emergence
Outline: (§1)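 Seeds sown in sandy loam in wood-fiber pots and covered with soil. Greenhouse growth; visual damage scored after 3 weeks versus untreated controls (100% = dead, 0% = like control).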

AMARE [2] = assay: Pre-emergence action against AMARE; type: in vivo, Amaranthus retroflexus; conditions: pre-emergence, dosage 320 g/ha, scored visually after 3 weeks vs untreated controls
Outline: as §1

CYPES [3] = assay: Pre-emergence action against CYPES; type: in vivo, Cyperus esculentus; conditions: for Herbicidal efficacy against CYPES: 80 g of a.i./ha
Outline: as §1

MATIN [4] = assay: Pre-emergence action against MATIN; type: in vivo, Matricaria inodora; conditions: for Pre-emergence action against MATIN: Dosage 320 g/ha
Outline: as §1

VERPE [5] = assay: Post-emergence action against VERPE; type: in vivo, Veronica persica; conditions: dosage 80 g/ha
Outline: (§2)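 Weeds grown in sandy loam in greenhouse, treated at one-leaf stage (2–3 weeks after sowing) with WP or EC formulations sprayed as aqueous suspension/emulsion at 600 to […] water with 0.2% wetting agent. Visual rating after about 3 weeks versus untreated controls, as % herbicidal action (100% = plants dead, 0% = like control).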

ABUTH [6] = assay: Post-emergence action against ABUTH; type: in vivo, Abutilon theophrasti; conditions: for Post-emergence action against ABUTH (herbicidal action in percent): dosage 80 g/ha, visual assessment about 3 weeks after treatment vs untreated controls
Outline: as §2

ECHCG [7] = assay: Pre-emergence action against ECHCG; type: in vivo, Echinochloa crus-galli; conditions: pre-emergence, dosage 320 g/ha, scored visually after 3 weeks vs untreated controls
Outline: as §1

AMARE [8] = assay: Post-emergence action against AMARE; type: in vivo, Amaranthus retroflexus; conditions: for Post-emergence action against AMARE (herbicidal action in percent): dosage 80 g/ha, visual assessment about 3 weeks after treatment vs untreated controls
Outline: as §2

MATIN [9] = assay: Post-emergence action against MATIN; type: in vivo, Matricaria inodora; conditions: for Post-emergence action against MATIN (herbicidal action in percent): dosage 80 g/ha, visual assessment about 3 weeks after treatment vs untreated controls
Outline: as §2

STEME [10] = assay: Post-emergence action against STEME; type: in vivo, Stellaria media; conditions: for Post-emergence action against STEME: dosage 80 g/ha
Outline: as §2

POLCO [11] = assay: Post-emergence action against POLCO; type: in vivo, Polygonum convolvulus; conditions: post-emergence, dosage 80 g/ha
Procedure: (§3) Seeds of monocotyledonous and dicotyledonous weed and crop plants are laid out in sandy loam soil in wood-fiber pots, covered with soil and cultivated in a greenhouse under good growth conditions. 2 to 3 weeks after sowing, the test plants are treated at the one-leaf stage. The compounds of the invention, formulated in the form of wettable powders (WP) or as emulsion concentrates (EC), are then sprayed onto the green parts of the plants in the form of an aqueous suspension or emulsion at a water application rate equating to […], with addition of 0.2% wetting agent. After the test plants have been left to stand in the greenhouse under optimal growth conditions for about 3 weeks, the action of the preparations is assessed visually in comparison to untreated controls (herbicidal action in percent (%): 100% activity=the plants have died, 0% activity=like control plants). […] At the same time, inventive compounds leave Gramineae crops such as barley, wheat, rye, millet/Sorghum, corn or rice virtually undamaged when applied post-emergence, even at high active ingredient dosages. In addition, some substances are also harmless to dicotyledonous crops such as soya, cotton, oilseed rape, sugar beet or potatoes. Some of the compounds according to the invention have high selectivity and are therefore suitable for controlling unwanted vegetation in agricultural crops by the post-emergence method. The data of Tables B18 to B34 below illustrate, in an exemplary manner, the […] herbicidal action of the compounds according to the invention, the herbicidal activity being stated in percent.

VIOTR [12] = assay: Post-emergence action against VIOTR; type: in vivo, Viola tricolor; conditions: for Post-emergence action against VIOTR: dosage 80 g/ha
Outline: as §2

ALOMY = assay: Pre-emergence action against ALOMY; type: in vivo, Alopecurus myosuroides
Outline: as §1

SETVI [13] = assay: Post-emergence action against SETVI; type: in vivo, Setaria viridis; conditions: for Post-emergence action against SETVI (herbicidal action in percent): dosage 80 g/ha, visual assessment about 3 weeks after treatment vs untreated controls
Outline: as §2

AVEFA [14] = assay: Post-emergence action against AVEFA; type: in vivo, Avena fatua; conditions: post-emergence, dosage 80 g/ha, visual assessment about 3 weeks after treatment vs untreated controls
Procedure: as §3

ECHCG [15] = assay: Post-emergence action against ECHCG; type: in vivo, Echinochloa crus-galli; conditions: post-emergence, dosage 80 g/ha, visual assessment about 3 weeks after treatment vs untreated controls
Outline: as §2

PHBPU = assay: Post-emergence action against PHBPU; type: in vivo, Pharbitis purpurea; conditions: post-emergence, dosage 80 g/ha
Outline: as §2

STEME [16] = assay: Pre-emergence action against STEME; type: in vivo, Stellaria media
Outline: as §1

ABUTH [17] = assay: Pre-emergence action against ABUTH; type: in vivo, Abutilon theophrasti; conditions: pre-emergence, dosage 320 g/ha, scored visually after 3 weeks vs untreated controls
Outline: as §1

SETVI [18] = assay: Pre-emergence action against SETVI; type: in vivo, Setaria viridis; conditions: for SETVI (Table B8, pre-emergence herbicidal activity): dosage 320 g/ha, scored visually after 3 weeks vs untreated controls
Outline: as §1

POLCO [19] = assay: Pre-emergence action against POLCO; type: in vivo, Polygonum convolvulus; conditions: Dosage 320 g/ha, pre-emergence
Outline: as §1

VIOTR [20] = assay: Pre-emergence action against VIOTR; type: in vivo, Viola tricolor; conditions: for Pre-emergence action against VIOTR: Dosage 320 g/ha
Outline: as §1

CYPES [21] = assay: Post-emergence action against CYPES; type: in vivo, Cyperus esculentus; conditions: post-emergence, dosage 80 g/ha, visual assessment about 3 weeks after treatment vs untreated controls
Outline: as §2

AVEFA [22] = assay: Pre-emergence action against AVEFA; type: in vivo, Avena fatua; conditions: dosage 320 g/ha, scored visually after 3 weeks vs untreated controls
Outline: as §1

[23] = Table V10, pre-emergence, 80 g of a.i./ha
[24] = Table V19, post-emergence, 5 g of a.i./ha
[25] = Table V21, post-emergence, 5 g of a.i./ha
[26] = Table V17, post-emergence, 5 g of a.i./ha

For `CCn1nnnc1NC(=O)c1ccc(S(C)(=O)=O)c(C(C)=O)c1C` [2-7], the “Pre-emergence action against VERPE” value (VERPE [1]) was 100%, the “Pre-emergence action against AMARE (herbicidal activity)” value (AMARE [2]) was 100% and the “Herbicidal efficacy against CYPES” value (CYPES [3]; Table V10, pre-emergence) was 90. For the same molecule, the “Herbicidal efficacy against CYPES” value (CYPES [3]; Table V11, pre-emergence) was 90, the “Pre-emergence action against CYPES (herbicidal activity)” value (CYPES [3]; pre-emergence, dosage 320 g/ha, scored visually after 3 weeks vs untreated controls) was 100% and the “Pre-emergence action against MATIN” value (MATIN [4]) was 100%. For the same molecule, the “Herbicidal efficacy against MATIN” value (MATIN [4]; [23]) was 100, the “Post-emergence action against VERPE” value (VERPE [5]) was 100 and the ABUTH (ABUTH [6]; [24]) was 100. The “Herbicidal efficacy against ABUTH” value (ABUTH [6]; [25]) was 100, the “Post-emergence action against ABUTH (herbicidal action in percent)” value (ABUTH [6]) was 100% and the “Pre-emergence action against ECHCG (herbicidal activity)” value (ECHCG [7]) was 100%. The “Herbicidal efficacy against AMARE” value (AMARE [8]; [25]) was 100, the “Post-emergence action against AMARE (herbicidal action in percent)” value (AMARE [8]) was 100% and the “Herbicidal efficacy against MATIN” value (MATIN [9]; [26]) was 100. For the same molecule, the MATIN (MATIN [9]; [24]) was 100, the “Post-emergence action against MATIN (herbicidal action in percent)” value (MATIN [9]) was 100% and the STEME (STEME [10]; [24]) was 100. The “Herbicidal efficacy against STEME” value (STEME [10]; [25]) was 100, the “Post-emergence action against STEME” value (STEME [10]) was 100 and the “Post-emergence action against POLCO” value (POLCO [11]) was 100. The “Herbicidal efficacy against VIOTR” value (VIOTR [12]; [26]) was 100, the VIOTR (VIOTR [12]; [24]) was 100 and the “Post-emergence action against VIOTR” value (VIOTR [12]) was 100. The “Herbicidal efficacy against ALOMY” value (ALOMY; [23]) was 70, the “Pre-emergence action against ALOMY (herbicidal activity in percent)” value (ALOMY; dosage 320 g/ha, pre-emergence, scored visually after 3 weeks vs untreated controls, 100% = plants have died, 0% = like control plants) was 80% and the SETVI (SETVI [13]; [24]) was 90. For the same molecule, the “Post-emergence action against SETVI (herbicidal action in percent)” value (SETVI [13]) was 100%, the “Post-emergence action against AVEFA (herbicidal action in percent)” value (AVEFA [14]) was 100% and the “Post-emergence action against ECHCG (herbicidal action in percent)” value (ECHCG [15]) was 100%. For the same molecule, the “Post-emergence action against PHBPU” value (PHBPU) was 80, the “Pre-emergence action against STEME” value (STEME [16]; Dosage 320 g/ha, pre-emergence) was 90% and the “Herbicidal efficacy against STEME” value (STEME [16]; [23]) was 90. For the same molecule, the “Pre-emergence action against ABUTH (herbicidal activity)” value (ABUTH [17]) was 100%, the “Herbicidal efficacy against SETVI” value (SETVI [18]; [23]) was 80 and the “SETVI (Table B8, pre-emergence herbicidal activity)” value (SETVI [18]) was 100%. The “Pre-emergence action against POLCO” value (POLCO [19]) was 90%, the “Pre-emergence action against VIOTR” value (VIOTR [20]) was 100% and the “Herbicidal efficacy against VIOTR” value (VIOTR [20]; Table V12, pre-emergence, 20 g of a.i./ha) was 90.
With `CCCn1nnnc1NC(=O)c1ccc(S(C)(=O)=O)c(C(=O)C2CC2)c1C` [3-9] the “Pre-emergence action against AMARE (herbicidal activity)” value (AMARE [2]) was 100%, the “Post-emergence action against CYPES (herbicidal action in percent)” value (CYPES [21]) was 80% and the “Pre-emergence action against MATIN” value (MATIN [4]) was 90%. For the same molecule, the “Post-emergence action against VERPE” value (VERPE [5]) was 100, the “Post-emergence action against ABUTH (herbicidal action in percent)” value (ABUTH [6]) was 80% and the “Pre-emergence action against ECHCG (herbicidal activity)” value (ECHCG [7]) was 100%. For the same molecule, the “Pre-emergence action against AVEFA (herbicidal activity)” value (AVEFA [22]) was 90%, the “Post-emergence action against AMARE (herbicidal action in percent)” value (AMARE [8]) was 100% and the “Post-emergence action against MATIN (herbicidal action in percent)” value (MATIN [9]) was 100%. The “Post-emergence action against STEME” value (STEME [10]) was 100, the “Post-emergence action against VIOTR” value (VIOTR [12]) was 100 and the “Post-emergence action against SETVI (herbicidal action in percent)” value (SETVI [13]) was 100%. The “Post-emergence action against AVEFA (herbicidal action in percent)” value (AVEFA [14]) was 100%, the “Post-emergence action against ECHCG (herbicidal action in percent)” value (ECHCG [15]) was 100% and the “Post-emergence action against PHBPU” value (PHBPU) was 100. For the same molecule, the “Pre-emergence action against ABUTH (herbicidal activity)” value (ABUTH [17]) was 100%, the “SETVI (Table B8, pre-emergence herbicidal activity)” value (SETVI [18]) was 100% and the “Pre-emergence action against POLCO” value (POLCO [19]) was 80%. The “Pre-emergence action against VIOTR” value (VIOTR [20]) was 100%.
